Earlier results, collected in article PMC9308844, “Development of new copper-64 labeled rhodamine: a potential PET myocardial perfusion imaging agent” (EJNMMI Radiopharmacy and Chemistry, 2022).

Parameters: method as in earlier work
Settings: ref Baranyai et al. [2020]; Clarke et al. 1990; Clarke and Martell [1991a], [b]; Wadas et al. [2010]; Tolmachev et al. [2017]

O=C([O-])CN1CCN(CC(=O)[O-])CCN(CC(=O)[O-])CC1.[Cu+2] [[Cu^II NOTA]]
Log K of Cu^II complex: 21.6
